# Test results as given in patent US9567329B2, “High penetration prodrug compositions of 1H-imidazo[4,5-c]quinolin-4-amines and 1H-imidazo[4,5-c]quinolin-4-amine-related compounds and uses thereof” (Techfields Pharma Co., Ltd, priority 2007, dated 2017).
# Legend:
# [1] = In vitro penetration rate across human skin in modified Franz cells; assay type: in vitro ADME; details: 3% solution in ethanol/pH 7.4 phosphate buffer (0.2 M) 70/30
# Description: Penetration rates of HPPs and their parent drugs through human skin were measured in vitro by modified Franz cells. A Franz cell had two chambers, the top sample chamber and the bottom receiving chamber. The human skin tissue (360-400 μm thick) that separated the top and the receiving chambers was isolated from the anterior or posterior thigh areas.
# A compound tested (0.5 mL, 3% in a mixture of ethanol and phosphate buffer (0.2M, pH 7.4) (v/v, 70/30)) was added to the sample chamber of a Franz cell. The receiving chamber contains 2 ml of 2% bovine serum albumin in saline which was stirred at 600 rpm. The amount of the tested compound penetrating the skin was determined by high-performance liquid chromatography (HPLC) method.
# The lowest detectable apparent flux values in this method was 1 μg/cm^2/h.
# [2] = Irritative effect or discomfort on skin of nude mice after topical application; assay type: in vivo; details: 0.1 ml of 3% in pH 7.4 phosphate buffer, back of nude mice, twice per day, 1 week
# Description: Irritative effect or discomfort in the skin of mice of HPPs of 1H-imidazo[4,5-c]quinolin-4-amines or 1H-imidazo[4,5-c]quinolin-4-amine-related compounds was evaluated during a period of 1 week after the topical application of 0.1 ml of 3% of the respective test drug in pH 7.4 phosphate buffer (0.2 M) to the back of nude mice twice per day.
# [3] = Conversion of HPPs to parent drugs in human plasma (half life); assay type: in vitro ADME; details: 37° C.
# Description: HPPs of 1H-imidazo[4,5-c]quinolin-4-amines or 1H-imidazo[4,5-c]quinolin-4-amine-related compounds converted to the parent 1H-imidazo[4,5-c]quinolin-4-amines or 1H-imidazo[4,5-c]quinolin-4-amine-related compounds quickly in good yield in human plasma.
# A HPP of 1H-imidazo[4,5-c]quinolin-4-amines or 1H-imidazo[4,5-c]quinolin-4-amine-related compound (0.05 mg) was dissolved in 0.1 ml of 0.2M pH 7.4 phosphate buffer. 1 ml of human plasma, preheated to 37° C., was added into the mixture. The mixture was kept in a water bath at 37° C., and at every 10 min intervals 0.2 ml of samples were withdrawn and added to 0.4 ml of methanol to precipitate the plasma protein. The samples were centrifuged for 5 min and analyzed by HPLC.
# [4] = test system: Human breast cancer cells (BCAP-37); assay: Antitumor activity, breast cancer xenograft, topical treatment from day 1; details: 50 μl of 3% topically once per day from day 1; after 28 days
# Source text: Human breast cancer cells (BCAP-37, 4-5 mm^3 of tumor tissue was used in each mouse) were subcutaneous xenografted into nude mice (BALB).
# [5] = test system: Human colon cancer cells (LS174J); assay: Antitumor activity, colon cancer xenograft, topical treatment from day 1; details: 50 μl of 3% topically twice per day from day 1; after 28 days
# Source text: Human colon cancer cells (LS174J, 4-5 mm^3 of tumor tissue was used in each mouse) were subcutaneously xenografted into nude mice (BALB).
# [6] = test system: Human breast cancer cells (BCAP-37)
# Source text: Human breast cancer cells (BCAP-37, 3-4 mm^3 of tumor tissue was used in each mouse) were subcutaneously xenografted into nude mice (BALB).
# interferon production [7] = assay: Interferon inducing activity in guinea pigs (serum protection of fibroblasts from mengovirus); assay type: in vivo; details: serum 18 hours after treatment
# Description: Without being bound by any mechanism, the ability to induce interferon production of the pro-drugs of the invention was evaluated in guinea pigs (n=10). Untreated guinea pigs provided controls.
# Each test drug was administered to real back skin of a guinea pig at a specific dose of about 0.5-4.5 mg/kg respectively.
# Each treated and control guinea pig was bled 18 hours after drug treatment and its serum was assayed for interferon activity. The serum was diluted and incubated with guinea pig fibroblast cells at 37° C. overnight in 96 well microtiter plates. The incubated cells were then challenged with an inoculum of mengovirus that was sufficient to kill untreated cells in two days. Two days after such challenge, the cells were examined both microscopically and after staining with crystal violet to determine whether the cells remained intact.
# Table 4 contains the results of the study with activity/ml indicating the highest dilute on of serum that protected cells from virus challenge. Untreated guinea pigs provided controls.
# [8] = test system: herpes simplex virus Type II; assay: Anti-Herpes activity, treated for 3 days before HSV infection; assay type: in vivo; details: guinea pigs
# Description: (§1) The evaluation of anti-Herpes activity of these prodrugs was carried out using the method described by Kern, et al. [Antimicrob. Agents Chemother. 14, 817, (1978)]. In each experiment, female guinea pigs (n=10) were anesthetized. […] Virus replication was monitored by determining the amount of virus recovered with vaginal swabs taken on day 7 after infection. […] The percent Lesion Inhibition was calculated as follows: 100-[(Sum of maximum lesion scores of treated group divided by the Sum of the scores of infected control)×100] (Table 5).
# [9] = test system: herpes simplex virus Type I; assay: as above; assay type: in vivo; details: guinea pigs
# Description: as §1
# [10] = test system: herpes simplex virus Type II; assay: Anti-Herpes activity, treated for 5 days, first treatment just after HSV infection; assay type: in vivo; details: guinea pigs
# Description: (§2) The evaluation of anti-Herpes activity of these prodrugs was carried out using the method described by Kern, et al. [Antimicrob. Agents Chemother. 14, 817, (1978)].
# (§3) In the second experiment, female guinea pigs (n=10) were anesthetized. Herpes simplex virus (Type I or Type II, about 10^5 plaque forming units were used) was applied intravaginally to the guinea pigs using a cotton swab. […] Virus replication was monitored by determining the amount of virus recovered with vaginal swabs taken on day 7 after infection. External lesions were scored daily for ten days using the following scale: 0, no lesion; 1, redness and swelling; 2, a few small vesicles; 3, several large vesicles; 4, large ulcers and necrosis; and 5, paralysis. The percent Lesion Inhibition was calculated as follows: 100−[(Sum of maximum lesion scores of treated group divided by the Sum of the scores of infected control)×100] (Table 6).
# [11] = test system: herpes simplex virus Type I; assay: as above; assay type: in vivo; details: guinea pigs
# Description: as §2, §3
# [12] = test system: herpes simplex virus Type II; assay: Anti-Herpes activity, treated for 5 days, first treatment 5 days after HSV infection; assay type: in vivo; details: guinea pigs
# Description: as §2
# (§4) In the third experiment, female guinea pigs (n=10) were anesthetized. The guinea pigs were then infected with herpes simplex virus (type I or Type II, about 10^5 plaque forming units were used) intravaginally using a cotton swab. […] External lesions were scored daily for ten days using the following scale: 0, no lesion; 1, redness and swelling; 2, a few small vesicles; 3, several large vesicles; 4, large ulcers and necrosis; and 5, paralysis. The percent Lesion Inhibition was calculated as follows: 100−[(Sum of maximum lesion scores of treated group divided by the Sum of the scores of infected control)×100] (Table 7).
# [13] = test system: herpes simplex virus Type I; assay: as above; assay type: in vivo; details: guinea pigs
# Description: as §2, §4
# interferon production [14] = assay: Interferon inducing activity in guinea pigs (serum protection of fibroblasts from mengovirus); assay type: in vivo; details: serum 18 hours after treatment; remark: listed apart in the source
# [15] = at day 42, treatment from day 21 (tumors 13±2 mm×12±3 mm), 50 μl of 3% topically once per day
# [16] = 0.5 mg/kg once per day for 3 days before HSV infection
# [17] = 1.5 mg/kg once per day for 3 days before HSV infection
# [18] = 4.5 mg/kg once per day for 3 days before HSV infection
# [19] = 0.5 mg/kg once per day for 5 days
# [20] = 1.5 mg/kg once per day for 5 days
# [21] = 4.5 mg/kg once per day for 5 days
structure (smiles),measurement,setting,value
"CNCC(=O)Nc1nc2ccccc2c2c1ncn2CC(C)C.Cl [sarcosine 1-isobutyl-1H-imidazo[4,5-c]quinolin-4-amide hydrochloride]",In vitro Penetration Rate of HPPs (apparent flux),[1],0.15 mg/cm^2/h
same,signs of irritative effect or discomfort in the skin,[2],None of any signs of irritative effect or discomfort was observed
same,Half life of HPPs in plasma,[3],27 ± 1 min
same,"Tumor size, Human breast cancer, first dimension",[4],None
same,"tumor incidence, human breast cancer",[4],no tumor was seen
same,"Tumor size, Human colon cancer, first dimension",[5],None
same,"tumor incidence, human colon cancer",[5],no tumor was seen
same,"tumor size, first dimension",[6]; [15],11±2 mm
same,"tumor size, second dimension",[6]; [15],10±2 mm
same,death of mice,"[6]; up to day 70, 50 μl of 3% topically once per day from day 21",none of mice died at day 70
same,"Interferon level of the HPP, transdermal",interferon production [7]; 0.5 mg/kg once,"8,676 activity/ml"
same,"Interferon level of the HPP, transdermal",interferon production [7]; 1.5 mg/kg once,"16,784 activity/ml"
same,"Interferon level of the HPP, transdermal",interferon production [7]; 4.5 mg/kg once,"57,235 activity/ml"
same,"% Lesion inhibition of the HPP, intravaginal, Herpes type II",[8]; [16],75%
same,"% Lesion inhibition of the HPP, transdermal, Herpes type II",[8]; [16],51%
same,"% Lesion inhibition of the HPP, intravaginal, Herpes type II",[8]; [17],90%
same,"% Lesion inhibition of the HPP, transdermal, Herpes type II",[8]; [17],73%
same,"% Lesion inhibition of the HPP, intravaginal, Herpes type II",[8]; [18],96%
same,"% Lesion inhibition of the HPP, transdermal, Herpes type II",[8]; [18],90%
same,"% Lesion inhibition of the HPP, intravaginal, Herpes type I",[9]; [16],71%
same,"% Lesion inhibition of the HPP, transdermal, Herpes type I",[9]; [16],45%
same,"% Lesion inhibition of the HPP, intravaginal, Herpes type I",[9]; [17],93%
same,"% Lesion inhibition of the HPP, transdermal, Herpes type I",[9]; [17],72%
same,"% Lesion inhibition of the HPP, intravaginal, Herpes type I",[9]; [18],95%
same,"% Lesion inhibition of the HPP, transdermal, Herpes type I",[9]; [18],91%
same,"% Lesion inhibition of the HPP, intravaginal, Herpes type II",[10]; [19],56%
same,"% Lesion inhibition of the HPP, transdermal, Herpes type II",[10]; [19],49%
same,"% Lesion inhibition of the HPP, intravaginal, Herpes type II",[10]; [20],90%
same,"% Lesion inhibition of the HPP, transdermal, Herpes type II",[10]; [20],80%
same,"% Lesion inhibition of the HPP, intravaginal, Herpes type II",[10]; [21],96%
same,"% Lesion inhibition of the HPP, transdermal, Herpes type II",[10]; [21],93%
same,"% Lesion inhibition of the HPP, intravaginal, Herpes type I",[11]; [19],57%
same,"% Lesion inhibition of the HPP, transdermal, Herpes type I",[11]; [19],47%
same,"% Lesion inhibition of the HPP, intravaginal, Herpes type I",[11]; [20],87%
same,"% Lesion inhibition of the HPP, transdermal, Herpes type I",[11]; [20],77%
same,"% Lesion inhibition of the HPP, intravaginal, Herpes type I",[11]; [21],95%
same,"% Lesion inhibition of the HPP, transdermal, Herpes type I",[11]; [21],91%
same,"% Lesion inhibition of the HPP, intravaginal, Herpes type II",[12]; [19],38%
same,"% Lesion inhibition of the HPP, transdermal, Herpes type II",[12]; [19],38%
same,"% Lesion inhibition of the HPP, intravaginal, Herpes type II",[12]; [20],70%
same,"% Lesion inhibition of the HPP, transdermal, Herpes type II",[12]; [20],58%
same,"% Lesion inhibition of the HPP, intravaginal, Herpes type II",[12]; [21],90%
same,"% Lesion inhibition of the HPP, transdermal, Herpes type II",[12]; [21],88%
same,"% Lesion inhibition of the HPP, intravaginal, Herpes type I",[13]; [19],37%
same,"% Lesion inhibition of the HPP, transdermal, Herpes type I",[13]; [19],37%
same,"% Lesion inhibition of the HPP, intravaginal, Herpes type I",[13]; [20],68%
same,"% Lesion inhibition of the HPP, transdermal, Herpes type I",[13]; [20],57%
same,"% Lesion inhibition of the HPP, intravaginal, Herpes type I",[13]; [21],88%
same,"% Lesion inhibition of the HPP, transdermal, Herpes type I",[13]; [21],89%
same,"Interferon level of the HPP, intravaginal",interferon production [14]; 0.5 mg/kg once,"23,647 activity/ml"
same,"Interferon level of the HPP, intravaginal",interferon production [14]; 1.5 mg/kg once,"56,735 activity/ml"
same,"Interferon level of the HPP, intravaginal",interferon production [14]; 4.5 mg/kg once,"87,795 activity/ml"
